Measured values published in patent publication US5373015A, “Fused pyridine derivatives useful as angiotensin II antagonists” (Imperial Chemical Industries PLC, priority 1991, dated 1994).

Target: T1, AII receptors (Cavia porcellus, UniProt Q9WV26)
T1 construct: from tissue; host or cells: guinea pig adrenal gland, cell surface membrane fraction
T1 sequence (Q9WV26 1-359): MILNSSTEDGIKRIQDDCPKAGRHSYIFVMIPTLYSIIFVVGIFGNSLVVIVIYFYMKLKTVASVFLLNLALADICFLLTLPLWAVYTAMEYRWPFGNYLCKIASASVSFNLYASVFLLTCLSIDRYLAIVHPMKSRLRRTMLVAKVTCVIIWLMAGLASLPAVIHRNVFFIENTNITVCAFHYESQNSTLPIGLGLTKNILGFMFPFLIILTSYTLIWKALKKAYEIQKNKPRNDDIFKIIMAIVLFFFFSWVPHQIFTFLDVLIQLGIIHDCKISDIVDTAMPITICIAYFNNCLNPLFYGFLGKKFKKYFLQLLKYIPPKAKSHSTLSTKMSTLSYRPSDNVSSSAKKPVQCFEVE
Assay: Test A: displacement of radiolabelled AII binding from guinea pig adrenal gland membrane fraction
Conditions: guinea pig adrenal gland membranes; read-out: IC50 (concentration for 50% displacement of radiolabelled AII binding)
Description: This in vitro procedure involves the incubation of the test compound initially at a concentration of 100 micromolar (or less) in a buffered mixture containing fixed concentrations of radiolabelled AII and a cell surface membrane fraction prepared from a suitable angiotensin target tissue. In this test, the source of cell surface membranes is the guinea pig adrenal gland which is well known to respond to AII. Interaction of the radiolabelled AII with its receptors (assessed as radiolabel bound to the particulate membrane fraction following removal of unbound radiolabel by a rapid filtration procedure such as is standard in such studies) is antagonized by compounds which also bind to the membrane receptor sites and the degree of antagonism (observed in the test as displacement of membrane-bound radioactivity) is determined readily by comparing the receptor-bound radioactivity in the presence of the test compound at the specified test concentration with a control value determined in the absence of the test compound. Using this procedure compounds showing at least 50% displacement of radiolabelled AII binding at a concentration of 10^4 M are retested at lower concentrations to determine their potency. […]

- IC50: 270 nM
Structure (SMILES): CCc1cc2c(ccc(=O)n2Cc2ccc(OC(C(=O)O)c3ccccc3)cc2)c(CC)n1 (stereo not shown) [Example 2]
